Measured values: article PMC11224357, “Green, facile synthesis and evaluation of unsymmetrical carbamide derivatives as antimicrobial and anticancer agents with mechanistic insights” (Scientific Reports, 2024)
In brackets after ≈: the same amount, converted by molar mass. Read-outs that look alike come from different tables or passages of the source.

Experiments:
[1] = tested on: Aspergillus fumagitus; experiment: Agar well diffusion; type: cell-based; conditions: read-out: Inhibition Zone
Text: (§1) The antimicrobial efficiency of the synthesized unsymmetrical carbamide derivatives was screened using standard clinical pathogens derived from Department of Microbiology and Immunology, Faculty of Medicine (Boys), Al-Azhar University. The tested microbial pathogens used in this study were as follows, two Gram-positive bacteria (Bacillus subtilis, Staphylococcus aureus), two Gram-negative bacteria (Pseudomonas aerginousea, klebsiella pneumoniae) and two fungi (Candida albicans, Aspergillus fumgitus). Before each antimicrobial examination, pre-activation of each microbial pathogen was implemented using specific growth conditions. For bacterial ones, preinoculum was prepared using Nuitrent broth medium (Codalab, Spain) at 37 °C for 24 h. while the fungal pathogens were activated using Potato Dextrose broth (Codalab, Spain) at 28 °C for 48 h. Consequently, each tested pathogen justified its inoculum size based on Colony Forming Units (CFU) to be closed to […] during all antimicrobial tests.

[2] = tested on: Candida albicans; experiment: Agar well diffusion; type: cell-based; conditions: read-out: Inhibition Zone
Text: as §1

[3] = tested on: Bacillus subtilis; experiment: Agar well diffusion; type: cell-based; conditions: read-out: Inhibition Zone
Text: as §1, with “For bacterial ones, preinoculum was prepared using Nuitrent broth medium (Codalab, Spain) at 37 °C for 24 h. while the fungal pathogens were activated using Potato Dextrose broth (Codalab, Spain) at 28 °C for 48 h.” left out

[4] = tested on: Klebsiella pneumonia; experiment: Agar well diffusion; type: cell-based; conditions: Klebsiella pneumoniae, read-out: Inhibition Zone
Text: as §1, with “For bacterial ones, preinoculum was prepared using Nuitrent broth medium (Codalab, Spain) at 37 °C for 24 h. while the fungal pathogens were activated using Potato Dextrose broth (Codalab, Spain) at 28 °C for 48 h.” left out

[5] = tested on: Pseudomonas aeruginosa; experiment: Agar well diffusion; type: cell-based; conditions: read-out: Inhibition Zone
Text: as §1, with “For bacterial ones, preinoculum was prepared using Nuitrent broth medium (Codalab, Spain) at 37 °C for 24 h. while the fungal pathogens were activated using Potato Dextrose broth (Codalab, Spain) at 28 °C for 48 h.” left out

[6] = tested on: HCT-116 (human colon cancer); experiment: MTT cytotoxicity assay; type: cell-based
Procedure: (§2) The MTT 3-(4,5-dimethylthiazol-2-yl)-2,5-diphenyl-tetrazolium bromide (Bio Basic Canada Inc. Toronto, Canada) assay was used to assess cell viability. The procedures were carried out in a biosafety class II sterile laminar air flow cabinet (Baker, SG403INT; Sanford, ME, USA). […] Cells were seeded at a density of (10^4 cells/well) into 96-well micro titer polypropylene plates and left to adhere for 24 h. The media was aspirated and the test chemicals were given to the cells in a single dose of 100 µM in DMSO. After 48 h of incubation, 40 µL of MTT salt ([…]) was applied to each well. […] Instead of the tested substances, the medium was applied to the untreated cells (negative control). […] The testing substance was dissolved in dimethylsulfoxide (DMSO), and its final concentration in the cells was less than 0.2%. The solvent concentration was the same for all medications and between the control and drug treatments at the same dilution.

[7] = tested on: MCF-7 (human breast cancer); experiment: MTT cytotoxicity assay; type: cell-based; conditions: for IC50: MTT
Procedure: as §2, with “The media was aspirated and the test chemicals were given to the cells in a single dose of 100 µM in DMSO.” left out

[8] = MTT cytotoxicity assay; type: cell-based, human; conditions: human, BJ-1 normal cells
Procedure: as §2

[9] = tested on: BJ-1 (human normal skin fibroblast cells); experiment: MTT cytotoxicity assay; type: cell-based; conditions: BJ-1 normal cells, 100 µM
Procedure: as §2

[10] = tested on: HCT-116 cells; experiment: Cell cycle analysis by flow cytometry (PI staining); type: cell-based, human
Procedure: The ethanol-suspended cells were centrifuged and re-suspended in 5 mL 1 × DPBS, then centrifuged again before being re-suspended in 1 mL of PI staining solution. The stained cells were kept in the dark at room temperature for 30 min before being transferred to the CytoFLEX Flow Cytometer to measure their fluorescence. […] BECKMAN COULTER Inc., Cairo, Egypt, Cat. No. 4238055-CB was used in this assay.

[11] = tested on: HCT-116 cells; experiment: Annexin V-FITC/PI necrosis cell apoptosis assay; type: cell-based, human; conditions: % of population
Procedure: (§3) The levels of necrosis and apoptosis in cells were determined by CytoFLEX Flow Cytometer. A total of 1 × 10^6 cells were washed in 1 × DPBS, and then were centrifuged at 500 × ϲ for 5 min. 1 μL of annexin V-FITC solution and 5 μL of dissolved PI were added to 100 μL of the cell suspensions that kept on ice and were incubated for 15 min in the dark. Cells were then analyzed by the CytoFLEX Flow Cytometer (Beckman Coulter Life Sciences, USA) and the percentage of apoptotic cells was determined using CytExpert Software.

[12] = tested on: Staphylococcus aureus; experiment: Agar well diffusion; type: cell-based
Text: as §1, with “For bacterial ones, preinoculum was prepared using Nuitrent broth medium (Codalab, Spain) at 37 °C for 24 h. while the fungal pathogens were activated using Potato Dextrose broth (Codalab, Spain) at 28 °C for 48 h.” left out

[13] = tested on: Aspergillus fumagitus; experiment: MIC by microdilution (CLSI); type: cell-based; conditions: read-out: Minimum inhibitory concentration (MIC)
Procedure: (§4) For this purpose, serial dilution of the potent compounds was carried out to obtain the desired concentrations (i.e. 10–400 µg/mL). In brief, a defined weight for each selected compound was dissolved in dimethylsulphoxide (DMSO) and used as a stock solution[29]. The determination of the MIC value for each targeted compound was known as the lowest concentration of each sample that yielded a minimum number of colony-forming units (CFU) compared to the untreated samples[28].

[14] = tested on: Candida albicans; experiment: MIC by microdilution (CLSI); type: cell-based; conditions: read-out: Minimum inhibitory concentration (MIC)
Procedure: as §4

[15] = tested on: Bacillus subtilis; experiment: MIC by microdilution (CLSI); type: cell-based; conditions: read-out: Minimum inhibitory concentration (MIC)
Procedure: (§5) In brief, a defined weight for each selected compound was dissolved in dimethylsulphoxide (DMSO) and used as a stock solution[29].

[16] = tested on: Klebsiella pneumonia; experiment: MIC by microdilution (CLSI); type: cell-based; conditions: Klebsiella pneumoniae, read-out: Minimum inhibitory concentration (MIC)
Procedure: as §5

[17] = tested on: Pseudomonas aeruginosa; experiment: MIC by microdilution (CLSI); type: cell-based; conditions: read-out: Minimum inhibitory concentration (MIC)
Procedure: as §5

[18] = tested on: Staphylococcus aureus; experiment: MIC by microdilution (CLSI); type: cell-based; conditions: read-out: Minimum inhibitory concentration (MIC)
Procedure: as §5

[19] = tested on: Bacillus subtilis; experiment: Lipid peroxidation (LPO) MDA-TBA assay of bacterial cell membrane; type: cell-based; conditions: overnight incubation, MDA-TBA at 532 nm
Procedure: (§6) Lipid peroxidation of bacterial cell membranes was a remarkable tool indicating the oxidative stress that was caused by the tested compounds. The lipid peroxidation colorimetric assay kit was used for this purpose. […]. […] Briefly, each tested compound was incubated with each bacterial pathogen overnight under shaking and then 1 mL of the treated bacterial cell was vigorously mixed with 300 μL MDA lysis buffer at 4 °C. The addition of 3 μL of Butylated hydroxytoluene (BHT) was then performed to avoid the pigment interference that resulted from the decomposition of lipophilic peroxides. Thereafter, samples were separated by centrifugation at 8000 rpm for 10 min, and the insoluble substances were discarded. Finally, 200 μL of the clear supernatant was mixed with 600 μL of the TBA solution at 95 °C for 60 min. Samples were then cooled at room temperature, and the developed pink color was determined at 532 nm using a Spectrophotometer (Agilent Cary 100, Germany). The positive control was also prepared using 5% of Hydrogen peroxide and treated each bacterial pathogen for 20 min. The noticed increase in the lipid peroxidation efficiency was expressed from the following equation: Lipidperoxidationefficiency%=NC-NS/NC×100. where NC is the absorbance of lipid peroxidation in the untreated bacterial cells and NS is the absorbance of lipid peroxidation in the treated bacterial cells.

[20] = tested on: Klebsiella pneumonia; experiment: as above; type: cell-based; conditions: overnight incubation, MDA-TBA at 532 nm
Procedure: as §6

[21] = tested on: Pseudomonas aeruginosa; experiment: as above; type: cell-based; conditions: overnight incubation, MDA-TBA at 532 nm
Procedure: as §6

[22] = tested on: Staphylococcus aureus; experiment: as above; type: cell-based; conditions: overnight incubation, MDA-TBA at 532 nm
Procedure: as §6

[23] = tested on: MCF-7 cells; experiment: Annexin V-FITC/PI necrosis cell apoptosis assay; type: cell-based, human; conditions: % of population
Procedure: as §3

[24] = Homo sapiens, MCF7, 48 h, MCF-7, 48 h
[25] = Aspergillus fumagitus, 20 µg/mL

Structure (SMILES)	IC50 [7, 24] [µM]	melting point [°C]	zone of inhibition at 20 µg/mL [1, 25] [mm]	zone of inhibition at 20 µg/mL ([2]; 20 µg/mL) [mm]	zone of inhibition at 20 µg/mL ([3]; 20 µg/mL) [mm]	zone of inhibition at 20 µg/mL ([4]; Klebsiella pneumonia, 20 µg/mL) [mm]	zone of inhibition at 20 µg/mL ([5]; 20 µg/mL) [mm]	zone of inhibition at 20 µg/mL [12] [mm]	MIC [13] [mg/L]	MIC [14] [mg/L]	MIC [15] [mg/L]	MIC [16] [mg/L]	MIC [17] [mg/L]	MIC [18] [mg/L]	Lipid peroxidation [19] [%]	Lipid peroxidation [20] [%]	Lipid peroxidation [21] [%]	Lipid peroxidation [22] [%]	further results
CN1CCN(C(=O)Nc2ccccc2)CC1 [Compound 21, 4-Methyl-N-phenylpiperazine-1-carboxamide]	91.6 ± 0.112	128 to 130																	zone of inhibition at 20 µg/mL ([1]; Aspergillus): 2 mm; zone of inhibition at 20 µg/mL [2]: 3 mm; zone of inhibition at 20 µg/mL [3]: 4 mm; zone of inhibition at 20 µg/mL [4]: 3 mm; zone of inhibition at 20 µg/mL [5]: 2 mm; cytotoxicity at 100 µM ([6]; HCT-116, 48 h): ≥ 65%; IC50 ([6]; HCT-116, MTT, 48 h): 38.5 ± 0.17 µM; cytotoxicity at 100 µM ([7]; Homo sapiens, MCF7, 48 h): ≥ 51%; cytotoxicity at 48 h, 100 µM [8]: 38.9%; Cytotoxicity (%) [9]: 47.2%; cell cycle arrest (phase) [10]: weaker than those of compound 13; early apoptosis [11]: 0.99%; late apoptosis [11]: 0.44%
Cc1ccc(NC(=O)N2CCOCC2)cc1 [Compound 15, N-(p-tolyl)morpholine-4-carboxamide]		165 to 167	2	4	2	4	4	2	20 (≈ 90.8 µM)	10 (≈ 45.4 µM)	40 (≈ 182 µM)	20 (≈ 90.8 µM)	20 (≈ 90.8 µM)	40 (≈ 182 µM)	157.1	108.6	107	128.9	
O=C(Nc1ccccc1)N1CCCCC1 [Compound 22, N-phenylpiperidine-1-carboxamide]	91.6 ± 0.112	190 to 192	4	5	5	3	3	2	10 (≈ 49 µM)	5 (≈ 24.5 µM)	10 (≈ 49 µM)	40 (≈ 196 µM)	80 (≈ 392 µM)	40 (≈ 196 µM)	264.8	191.3	170	273.4	cytotoxicity at 100 µM ([7]; Homo sapiens, MCF7, MCF-7, single dose 100 µM, 48 h, read-out: Cytotoxicity (%)): ≥ 51%; IC50 ([7]; MCF-7, 48 h): 57.9 ± 0.122 µM; early apoptosis [23]: 7.93%; late apoptosis [23]: 1.1%
